Test systems include A498; A549; BT-549; HOP-62; Hs-578T; LOX IMVI; MCF7; NCI-H522; NCI/ADR-RES; OVCAR-5; PC-3; T47D; UACC-257; OVCAR-4; CCRF-CEM.
Holding throughout (test): NCI-60 cell line screen, 48 h

Data on 14 compounds can be found in ChEMBL document CHEMBL1201862, “PubChem BioAssay data set” (2004).

The structures appear in SMILES notation.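 Test compounds were applied to cells in 96-well plates for 48 hours at 5 doses. GI50 marks 50% less growth.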 Calls of active or inactive are those of the source. Rule as the data show it: active = GI50 up to about 1.1 µM and inactive = higher.

With `C[C@]12CC[C@H](OC(=O)Cc3ccc(N(CCCl)CCCl)cc3)CC1=CC[C@@H]1[C@@H]2CC[C@]2(C)C(=O)CC[C@@H]12`, the GI50 in the assay on A498, in the assay with A549, with BT-549, in the assay with HOP-62, in the assay on Hs-578T and in the assay on LOX IMVI was > 100 µM (inactive) throughout. For the same compound, the GI50 in the assay on MCF7 is > 100 µM (inactive); with NCI-H522 it was > 100 µM (inactive); in the assay on NCI/ADR-RES, > 100 µM (inactive); with OVCAR-5, > 100 µM (inactive); with PC-3, > 100 µM (inactive); in the assay with T47D, 92.5 µM (inactive). The GI50 in the assay with UACC-257 was > 100 µM (inactive).
Consider `O=C(/C=C/c1ccccc1)Oc1cccc(O)c1`, for which the GI50 is > 100 µM (inactive) with A498; 46 µM (inactive) in the assay with A549; > 100 µM (inactive) in the assay on BT-549; 53.6 µM (inactive) with HOP-62; 25.9 µM (inactive) in the assay with Hs-578T; 27.5 µM (inactive) with LOX IMVI. Besides, the GI50 was 38.7 µM (inactive) in the assay with MCF7; 6.81 µM (inactive) in the assay with NCI-H522; 42.8 µM (inactive) in the assay with NCI/ADR-RES; 36.3 µM (inactive) in the assay on OVCAR-4; 30.3 µM (inactive) in the assay on OVCAR-5; > 100 µM (inactive) in the assay with PC-3. Also, the values for the GI50 in the assay with T47D and in the assay with UACC-257 were 59.6 µM (inactive) and > 100 µM (inactive), respectively.
For the compound `C=C1N(C)c2ccc(S(=O)(=O)c3ccc4c(c3)C(C)(C)C(=C)N4C)cc2C1(C)C`, the GI50 with A498 is 37.2 µM (inactive); in the assay on A549 it was 28.6 µM (inactive); in the assay on BT-549 it was 26.1 µM (inactive); in the assay on CCRF-CEM it was 50.1 µM (inactive); in the assay with HOP-62, 56.1 µM (inactive); with Hs-578T, 24.3 µM (inactive). The GI50 in the assay with MCF7 was 29 µM (inactive); in the assay with NCI-H522, 20.7 µM (inactive); with NCI/ADR-RES it was 59 µM (inactive); in the assay with OVCAR-4, 35.3 µM (inactive); in the assay on OVCAR-5, 83.9 µM (inactive); in the assay with PC-3, 35.5 µM (inactive). The GI50 is 24.2 µM (inactive) in the assay on T47D and 26.4 µM (inactive) in the assay with UACC-257.
On to `COc1cccc(CCn2c(N)c(C#N)c3ccc([N+](=O)[O-])cc3c2=O)c1`, for which the GI50 is > 100 µM (inactive) with A498; > 46.5 µM (inactive) with A549; > 10 µM (inactive) with BT-549; 4.35 µM (inactive) in the assay on CCRF-CEM; > 31.6 µM (inactive) in the assay with HOP-62; 39.9 µM (inactive) in the assay with Hs-578T. Also, the GI50 in the assay on LOX IMVI is > 46.5 µM (inactive); in the assay with MCF7, > 31.6 µM (inactive); in the assay on NCI/ADR-RES, > 46.5 µM (inactive); with OVCAR-4 it was > 84.7 µM (inactive); in the assay on OVCAR-5 it was > 31.6 µM (inactive); with PC-3, > 46.5 µM (inactive). Also, the GI50 with T47D was > 46.5 µM (inactive); in the assay with UACC-257, > 31.6 µM (inactive).
As to `CN(C)/C=N/CC(O)c1ccccc1` (configuration not stated), the GI50 in the assay with A498 is > 100 µM (inactive); with A549 it was > 100 µM (inactive); in the assay with BT-549, > 100 µM (inactive); with CCRF-CEM it was > 100 µM (inactive); in the assay on HOP-62, > 100 µM (inactive); in the assay on Hs-578T, 28.5 µM (inactive). In addition, the GI50 with LOX IMVI, with MCF7, in the assay with NCI-H522, in the assay with NCI/ADR-RES, with OVCAR-4 and in the assay with OVCAR-5 was > 100 µM (inactive) each time. In addition, the GI50 with PC-3 and in the assay on T47D was > 100 µM (inactive) in each case.
As for `O=S(=O)(N/C(=N\O)Nc1ccc(Cl)cc1)c1cc2ccccc2s1`, the GI50 in the assay on A549 is 18.7 µM (inactive); in the assay on BT-549, 17.1 µM (inactive); in the assay with CCRF-CEM, 21.9 µM (inactive); in the assay with HOP-62, 17.7 µM (inactive); with Hs-578T, 18.7 µM (inactive); in the assay with LOX IMVI it was 17.5 µM (inactive). The GI50 in the assay on NCI-H522 is 13.8 µM (inactive); in the assay on NCI/ADR-RES, 20.2 µM (inactive); in the assay on OVCAR-4, 14.4 µM (inactive); in the assay with OVCAR-5, 15.2 µM (inactive); in the assay on PC-3, 14.5 µM (inactive); in the assay on T47D, 21.9 µM (inactive). Also, the GI50 in the assay with UACC-257 is 22 µM (inactive).
Consider `CCCCCCOP(=O)(OCCCCCC)C(NC(=O)OCC)(C(F)(F)F)C(F)(F)F`, for which the GI50 was > 100 µM (inactive) in the assay with A498; 36.9 µM (inactive) with A549; 22.5 µM (inactive) with BT-549; 42.1 µM (inactive) with CCRF-CEM; > 100 µM (inactive) with HOP-62; 51.5 µM (inactive) with Hs-578T. In addition, the GI50 is 24.6 µM (inactive) in the assay with LOX IMVI; 37.2 µM (inactive) with MCF7; 28.1 µM (inactive) in the assay on NCI-H522; 28.8 µM (inactive) with NCI/ADR-RES; 43.8 µM (inactive) in the assay on OVCAR-5; 33.3 µM (inactive) with PC-3. Also, the GI50 in the assay with T47D is 39.5 µM (inactive).
With `Oc1ccc(-c2nc3ccc4ccccc4c3c3c2CCCC3)c(O)c1`, the GI50 with A498 is 51.1 µM (inactive); with A549, 23.2 µM (inactive); in the assay on BT-549, 32.7 µM (inactive); in the assay with HOP-62 it was 57.7 µM (inactive); with Hs-578T, 24.2 µM (inactive); in the assay with LOX IMVI, 32.7 µM (inactive). Further, the GI50 is 27.7 µM (inactive) in the assay on MCF7; 12.1 µM (inactive) in the assay with NCI-H522; > 100 µM (inactive) in the assay with NCI/ADR-RES; 66.8 µM (inactive) in the assay with OVCAR-4; 20 µM (inactive) in the assay on OVCAR-5; 21.6 µM (inactive) with PC-3. For the same compound, the GI50 with T47D is 7.5 µM (inactive); with UACC-257, 10.5 µM (inactive).
For `CCOC(=O)N/N=C(/N)Cc1ccccc1`, the GI50 in the assay on A498, in the assay on A549, with BT-549, in the assay with CCRF-CEM, with HOP-62 and with Hs-578T was > 100 µM (inactive) each time. For the same compound, the GI50 with LOX IMVI, in the assay on MCF7, in the assay on NCI-H522, in the assay on NCI/ADR-RES, in the assay with OVCAR-5 and with PC-3 was > 100 µM (inactive) each time. The GI50 with T47D and in the assay on UACC-257 was > 100 µM (inactive) each time.
For the compound `Nc1nc(Cl)cc(NCC2(CO)CCC(OCc3ccccc3)C2)n1` (configuration not stated), the GI50 in the assay on A498 was 8.24 µM (inactive); in the assay on A549, 15.2 µM (inactive); with BT-549, 13.9 µM (inactive); in the assay with CCRF-CEM, 14.6 µM (inactive); in the assay with HOP-62, 25.4 µM (inactive); with Hs-578T, 14.4 µM (inactive). In addition, the GI50 is 2.83 µM (inactive) in the assay on LOX IMVI; 1.59 µM (inactive) in the assay with MCF7; 1.31 µM (inactive) in the assay on NCI-H522; 3.81 µM (inactive) with NCI/ADR-RES; 12.1 µM (inactive) in the assay on OVCAR-4; 37.7 µM (inactive) in the assay with OVCAR-5. Also, the GI50 in the assay with PC-3 is 8.24 µM (inactive); in the assay with T47D it was 1.39 µM (inactive); in the assay with UACC-257, 12.8 µM (inactive).
In the case of `CN(C)c1ccc(/C=C/c2ccnc3ccc4ccccc4c23)cc1`, the GI50 was 24.8 µM (inactive) in the assay on A498; 35.7 µM (inactive) with A549; 37.5 µM (inactive) with BT-549; > 100 µM (inactive) in the assay with CCRF-CEM; 33.4 µM (inactive) in the assay on HOP-62; 36.6 µM (inactive) in the assay on Hs-578T. Further, the GI50 with LOX IMVI is 43.9 µM (inactive); in the assay with MCF7 it was 0.0873 µM (active); with NCI-H522 it was 17.3 µM (inactive); with NCI/ADR-RES it was 43.3 µM (inactive); in the assay on PC-3, 92.5 µM (inactive); in the assay with T47D it was 16.7 µM (inactive). Besides, in the assay with UACC-257, the GI50 is 89.5 µM (inactive).
With `COc1ccc(CCn2ccc(C)n2)c(OC)c1`, the GI50 in the assay with A549, with BT-549, with CCRF-CEM, with HOP-62, with Hs-578T and with LOX IMVI was > 100 µM (inactive) throughout. Further, the GI50 is > 100 µM (inactive) in the assay on MCF7; 90.2 µM (inactive) in the assay with NCI/ADR-RES; > 100 µM (inactive) in the assay on OVCAR-4; > 100 µM (inactive) in the assay on OVCAR-5; > 100 µM (inactive) with PC-3; 68.9 µM (inactive) with T47D. For the same compound, in the assay on UACC-257, the GI50 is > 100 µM (inactive).
Regarding `CC(=O)N(C)SCC(NC(=O)C(Cc1ccccc1)NC(=O)OCc1ccccc1)C(=O)NC(Cc1ccccc1)C(=O)NC(Cc1cn(C=O)c2ccccc12)C(=O)NC(CCCCNC(=O)OCc1ccccc1)C(=O)NC(C(=O)NC(CSN(C)C(C)=O)C(=O)NO)C(C)OCc1ccccc1` (configuration not stated), the GI50 in the assay with A549, in the assay on BT-549, with CCRF-CEM, with HOP-62, in the assay on Hs-578T and with LOX IMVI was > 100 µM (inactive) each time. Moreover, the GI50 with MCF7, with NCI-H522, with NCI/ADR-RES, in the assay on OVCAR-4, in the assay on OVCAR-5 and in the assay with PC-3 was > 100 µM (inactive) in each case. Besides, the GI50 in the assay on T47D and in the assay with UACC-257 was > 100 µM (inactive) throughout.
`NC(=O)c1oc([N+](=O)[O-])c(-c2ccccc2)c1-c1ccccc1`: the GI50 is 21.1 µM (inactive) with A549; 8 µM (inactive) in the assay with BT-549; 19.1 µM (inactive) in the assay with CCRF-CEM; 25.8 µM (inactive) in the assay with HOP-62; 0.0752 µM (active) with Hs-578T; 14.1 µM (inactive) in the assay on LOX IMVI. For the same compound, the GI50 in the assay on MCF7 was 29.5 µM (inactive); in the assay on NCI-H522, 12.6 µM (inactive); in the assay with NCI/ADR-RES, 19.4 µM (inactive); in the assay on OVCAR-4, 12.2 µM (inactive); in the assay with OVCAR-5, 26.1 µM (inactive); in the assay with PC-3, 15.5 µM (inactive). Further, the GI50 in the assay with T47D is 16.3 µM (inactive); with UACC-257, 18 µM (inactive).
